Measurements taken from the kinase profiling compilation of Christmann-Franck et al. (2016).

What was measured:
Experiment in all cases: radiometric filter-binding kinase assay, Kinase HotSpot
Conditions in all cases: compound 0.5 µM; ATP 10 µM
[1] = molecular target: MAPK3 (human) (UniProt P27361)
[2] = molecular target: FRK (human) (UniProt P42685)
[3] = molecular target: PNCK (human) (UniProt Q6P2M8)
[4] = molecular target: WEE1 (human) (UniProt P30291)
[5] = molecular target: RPS6KA5 KD2 (human) (UniProt O75582)
[6] = molecular target: JAK3 JH1 JH2 (human) (UniProt P52333)
[7] = molecular target: FGFR3 (human) (UniProt P22607)
[8] = molecular target: PHKG1 (human) (UniProt Q16816)
[9] = molecular target: PKN1 (human) (UniProt Q16512)
[10] = molecular target: PAK6 (human) (UniProt Q9NQU5)
[11] = molecular target: PHKG2 (human) (UniProt P15735)
[12] = molecular target: ULK1 (human) (UniProt O75385)
[13] = molecular target: DAPK3 (human) (UniProt O43293)
[14] = molecular target: PRKCZ (human) (UniProt Q05513)
[15] = molecular target: PIM2 (human) (UniProt Q9P1W9)
[16] = molecular target: CLK4 (human) (UniProt Q9HAZ1)
[17] = molecular target: AURKB (human) (UniProt Q96GD4)
[18] = molecular target: GRK7 (human) (UniProt Q8WTQ7)
[19] = molecular target: CAMK2G (human) (UniProt Q13555)
[20] = molecular target: SIK2 (human) (UniProt Q9H0K1)
[21] = molecular target: GRK4 (human) (UniProt P32298)
[22] = molecular target: MYLK2 (human) (UniProt Q9H1R3)
[23] = molecular target: FLT3 (human) (UniProt P36888)
[24] = molecular target: MARK2 (human) (UniProt Q7KZI7)
[25] = molecular target: INSRR (human) (UniProt P14616)
[26] = molecular target: MARK1 (human) (UniProt Q9P0L2)
[27] = molecular target: PRKCG (human) (UniProt P05129)
[28] = molecular target: GSK3B (human) (UniProt P49841)
[29] = molecular target: PLK3 (human) (UniProt Q9H4B4)
[30] = molecular target: MAPK13 (human) (UniProt O15264)
[31] = molecular target: EPHB1 (human) (UniProt P54762)
[32] = molecular target: MAPK14 (human) (UniProt Q16539)
[33] = molecular target: MAP3K9 (human) (UniProt P80192)
[34] = molecular target: PTK2 (human) (UniProt Q05397)
[35] = molecular target: ERBB4 (human) (UniProt Q15303)
[36] = molecular target: AURKA (human) (UniProt O14965)
[37] = molecular target: MARK3 (human) (UniProt P27448)
[38] = molecular target: MAPK10 (human) (UniProt P53779)
[39] = molecular target: PRKCB1 (human) (UniProt P05771)
[40] = molecular target: WNK3 (human) (UniProt Q9BYP7)
[41] = molecular target: IRAK1 (human) (UniProt P51617)
[42] = molecular target: FGFR2 (human) (UniProt P21802)

Sequence of AURKA (human) (O14965 whole entry, looked up): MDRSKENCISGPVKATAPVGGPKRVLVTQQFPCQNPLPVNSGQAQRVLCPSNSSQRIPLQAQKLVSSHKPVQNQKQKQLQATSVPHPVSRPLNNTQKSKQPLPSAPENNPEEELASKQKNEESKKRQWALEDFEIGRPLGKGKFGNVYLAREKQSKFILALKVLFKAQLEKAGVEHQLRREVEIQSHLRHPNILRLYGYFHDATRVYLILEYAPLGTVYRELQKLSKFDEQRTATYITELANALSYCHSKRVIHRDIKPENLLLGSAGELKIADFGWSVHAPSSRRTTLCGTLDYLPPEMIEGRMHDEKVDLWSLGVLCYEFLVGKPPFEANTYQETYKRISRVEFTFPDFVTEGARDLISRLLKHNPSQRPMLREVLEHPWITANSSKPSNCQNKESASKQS
Sequence of SIK2 (human) (Q9H0K1 whole entry, looked up): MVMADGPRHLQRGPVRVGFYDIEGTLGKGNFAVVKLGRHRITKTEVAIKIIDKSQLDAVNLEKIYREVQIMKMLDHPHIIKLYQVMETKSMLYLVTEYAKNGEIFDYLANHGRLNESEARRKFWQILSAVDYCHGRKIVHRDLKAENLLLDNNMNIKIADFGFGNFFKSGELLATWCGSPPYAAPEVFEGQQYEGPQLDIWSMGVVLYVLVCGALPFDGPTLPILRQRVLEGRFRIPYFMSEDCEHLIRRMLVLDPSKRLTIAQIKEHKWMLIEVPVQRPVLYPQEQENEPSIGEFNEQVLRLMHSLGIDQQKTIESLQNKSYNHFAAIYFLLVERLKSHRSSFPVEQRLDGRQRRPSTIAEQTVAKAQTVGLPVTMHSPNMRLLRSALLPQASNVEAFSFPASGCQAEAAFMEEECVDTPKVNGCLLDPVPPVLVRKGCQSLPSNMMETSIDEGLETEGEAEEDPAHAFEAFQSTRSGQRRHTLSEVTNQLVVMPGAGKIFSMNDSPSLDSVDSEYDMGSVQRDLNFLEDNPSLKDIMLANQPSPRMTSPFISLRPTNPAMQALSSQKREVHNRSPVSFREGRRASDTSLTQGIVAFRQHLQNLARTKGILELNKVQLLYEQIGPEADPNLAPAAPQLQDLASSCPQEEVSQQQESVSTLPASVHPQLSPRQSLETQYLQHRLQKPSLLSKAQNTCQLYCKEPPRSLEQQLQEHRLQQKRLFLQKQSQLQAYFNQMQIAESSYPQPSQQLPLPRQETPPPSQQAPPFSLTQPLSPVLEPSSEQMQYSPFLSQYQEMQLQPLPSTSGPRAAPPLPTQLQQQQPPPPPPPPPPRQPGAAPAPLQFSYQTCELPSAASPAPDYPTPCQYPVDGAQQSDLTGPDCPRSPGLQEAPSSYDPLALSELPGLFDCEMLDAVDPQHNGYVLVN
Sequence of CLK4 (human) (Q9HAZ1 whole entry, looked up): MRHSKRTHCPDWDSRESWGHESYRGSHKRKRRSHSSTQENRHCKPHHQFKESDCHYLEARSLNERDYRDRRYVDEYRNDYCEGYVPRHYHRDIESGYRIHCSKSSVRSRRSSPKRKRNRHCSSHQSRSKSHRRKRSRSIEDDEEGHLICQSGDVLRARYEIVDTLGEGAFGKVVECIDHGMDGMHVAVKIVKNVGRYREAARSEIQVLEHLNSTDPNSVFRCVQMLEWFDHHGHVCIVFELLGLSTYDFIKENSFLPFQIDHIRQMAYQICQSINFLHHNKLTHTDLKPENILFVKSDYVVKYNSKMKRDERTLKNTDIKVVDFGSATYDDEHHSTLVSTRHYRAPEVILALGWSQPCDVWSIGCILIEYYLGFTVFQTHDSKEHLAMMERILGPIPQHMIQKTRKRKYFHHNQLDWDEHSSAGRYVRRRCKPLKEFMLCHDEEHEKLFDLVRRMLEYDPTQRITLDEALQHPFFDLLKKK
Sequence of DAPK3 (human) (O43293 whole entry, looked up): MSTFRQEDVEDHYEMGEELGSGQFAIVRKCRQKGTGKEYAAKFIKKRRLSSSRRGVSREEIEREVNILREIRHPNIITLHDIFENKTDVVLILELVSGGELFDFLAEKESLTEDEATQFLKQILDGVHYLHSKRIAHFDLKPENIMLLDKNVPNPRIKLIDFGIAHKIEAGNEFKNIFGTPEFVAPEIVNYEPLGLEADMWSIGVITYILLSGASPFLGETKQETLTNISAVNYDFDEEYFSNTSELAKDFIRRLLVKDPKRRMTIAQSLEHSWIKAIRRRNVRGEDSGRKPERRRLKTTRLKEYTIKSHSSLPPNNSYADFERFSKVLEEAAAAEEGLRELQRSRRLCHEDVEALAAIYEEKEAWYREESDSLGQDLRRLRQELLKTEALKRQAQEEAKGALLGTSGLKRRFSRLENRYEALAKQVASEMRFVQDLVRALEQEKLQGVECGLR
Sequence of PHKG2 (human) (P15735 whole entry, looked up): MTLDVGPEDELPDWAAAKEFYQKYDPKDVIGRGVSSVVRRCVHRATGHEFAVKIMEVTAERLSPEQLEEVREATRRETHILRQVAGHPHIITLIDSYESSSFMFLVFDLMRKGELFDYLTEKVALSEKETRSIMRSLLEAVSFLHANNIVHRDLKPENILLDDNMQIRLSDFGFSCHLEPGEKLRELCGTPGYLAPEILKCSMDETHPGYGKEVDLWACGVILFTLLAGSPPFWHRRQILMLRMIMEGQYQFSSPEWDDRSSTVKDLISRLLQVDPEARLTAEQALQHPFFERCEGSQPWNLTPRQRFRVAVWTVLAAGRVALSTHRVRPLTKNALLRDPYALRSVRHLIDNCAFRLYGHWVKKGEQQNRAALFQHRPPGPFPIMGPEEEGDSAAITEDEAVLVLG
Sequence of PIM2 (human) (Q9P1W9 whole entry, looked up): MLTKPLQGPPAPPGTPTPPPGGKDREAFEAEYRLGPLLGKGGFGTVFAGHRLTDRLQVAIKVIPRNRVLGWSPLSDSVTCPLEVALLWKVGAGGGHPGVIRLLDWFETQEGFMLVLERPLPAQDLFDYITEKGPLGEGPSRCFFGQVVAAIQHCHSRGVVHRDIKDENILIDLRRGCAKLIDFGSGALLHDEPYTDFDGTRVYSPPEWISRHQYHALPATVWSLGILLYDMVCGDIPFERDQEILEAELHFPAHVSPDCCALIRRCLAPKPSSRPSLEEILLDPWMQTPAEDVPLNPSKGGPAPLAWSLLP
Sequence of PNCK (human) (Q6P2M8 whole entry, looked up): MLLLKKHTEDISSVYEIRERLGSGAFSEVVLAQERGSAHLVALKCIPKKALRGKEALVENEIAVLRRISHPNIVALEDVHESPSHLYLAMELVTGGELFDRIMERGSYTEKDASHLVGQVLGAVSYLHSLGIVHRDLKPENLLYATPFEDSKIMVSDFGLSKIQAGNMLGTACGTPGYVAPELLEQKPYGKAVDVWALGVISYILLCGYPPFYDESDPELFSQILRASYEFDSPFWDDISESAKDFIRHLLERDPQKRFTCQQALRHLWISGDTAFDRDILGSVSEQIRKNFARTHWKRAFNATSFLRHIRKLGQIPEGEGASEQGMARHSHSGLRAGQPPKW
Sequence of PRKCZ (human) (Q05513 whole entry, looked up): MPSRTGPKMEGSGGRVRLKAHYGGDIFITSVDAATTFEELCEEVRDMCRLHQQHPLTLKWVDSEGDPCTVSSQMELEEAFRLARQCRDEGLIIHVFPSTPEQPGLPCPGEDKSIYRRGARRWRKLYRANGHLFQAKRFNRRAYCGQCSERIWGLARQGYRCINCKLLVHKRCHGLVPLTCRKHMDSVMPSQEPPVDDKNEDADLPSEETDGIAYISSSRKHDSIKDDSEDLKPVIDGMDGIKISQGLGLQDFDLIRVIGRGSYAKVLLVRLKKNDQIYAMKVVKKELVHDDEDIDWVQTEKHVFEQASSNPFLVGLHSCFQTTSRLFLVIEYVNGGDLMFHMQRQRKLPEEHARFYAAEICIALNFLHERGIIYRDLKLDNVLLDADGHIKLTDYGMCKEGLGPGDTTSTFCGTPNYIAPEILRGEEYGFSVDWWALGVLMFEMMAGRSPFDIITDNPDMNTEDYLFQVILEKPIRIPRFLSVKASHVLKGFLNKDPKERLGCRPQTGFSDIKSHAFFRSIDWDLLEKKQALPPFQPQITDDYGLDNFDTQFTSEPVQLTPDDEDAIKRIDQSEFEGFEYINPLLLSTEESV
Sequence of FLT3 (human) (P36888 whole entry, looked up): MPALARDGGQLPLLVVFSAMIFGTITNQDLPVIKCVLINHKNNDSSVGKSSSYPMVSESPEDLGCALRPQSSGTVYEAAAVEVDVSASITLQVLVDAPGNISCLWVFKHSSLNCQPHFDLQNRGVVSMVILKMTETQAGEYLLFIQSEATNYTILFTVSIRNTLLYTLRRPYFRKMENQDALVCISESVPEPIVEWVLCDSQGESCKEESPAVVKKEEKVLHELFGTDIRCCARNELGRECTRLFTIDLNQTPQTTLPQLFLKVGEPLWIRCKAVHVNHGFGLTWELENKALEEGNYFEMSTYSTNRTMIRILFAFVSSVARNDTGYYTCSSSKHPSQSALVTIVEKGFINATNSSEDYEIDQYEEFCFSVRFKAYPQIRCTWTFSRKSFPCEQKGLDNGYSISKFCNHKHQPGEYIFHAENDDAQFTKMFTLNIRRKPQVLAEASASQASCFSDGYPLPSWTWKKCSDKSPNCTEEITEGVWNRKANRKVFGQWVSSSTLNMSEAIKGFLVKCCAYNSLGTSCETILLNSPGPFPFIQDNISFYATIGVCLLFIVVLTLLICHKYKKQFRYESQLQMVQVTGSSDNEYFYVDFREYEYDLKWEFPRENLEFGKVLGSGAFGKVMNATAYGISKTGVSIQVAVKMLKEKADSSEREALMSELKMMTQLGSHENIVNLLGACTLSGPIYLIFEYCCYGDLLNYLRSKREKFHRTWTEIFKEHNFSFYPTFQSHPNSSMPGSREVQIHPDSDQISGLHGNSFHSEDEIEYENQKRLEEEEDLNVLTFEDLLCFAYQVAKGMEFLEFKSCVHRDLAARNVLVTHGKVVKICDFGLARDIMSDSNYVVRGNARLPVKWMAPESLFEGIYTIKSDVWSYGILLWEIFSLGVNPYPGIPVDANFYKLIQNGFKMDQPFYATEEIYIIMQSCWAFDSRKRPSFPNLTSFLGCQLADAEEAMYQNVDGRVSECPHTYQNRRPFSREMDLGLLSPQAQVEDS

Q: With O=C1Cc2c([nH]c3ccc(Br)cc23)-c2ccccc2N1 as the molecule, how does the residual activity [1] read?
A: 100%

Q: And the residual activity [2]?
A: 97.4%

Q: And the residual activity [3]?
A: 99.6%

Q: What about the residual activity [4] of the same molecule?
A: 87.7%

Q: What about the residual activity [5] of the same molecule?
A: 99.6%

Q: And the residual activity [6]?
A: 103%

Q: And the residual activity [7]?
A: 101%

Q: What about the residual activity [8] of the same molecule?
A: 49.7%

Q: And the residual activity [9]?
A: 101%

Q: And the residual activity [10]?
A: 97.8%

Q: And the residual activity [11]?
A: 98.9%

Q: What about the residual activity [12] of the same molecule?
A: 93.8%

Q: What about the residual activity [13] of the same molecule?
A: 111%

Q: And the residual activity [14]?
A: 98.3%

Q: What about the residual activity [15] of the same molecule?
A: 104%

Q: And the residual activity [16]?
A: 91.1%

Q: What about the residual activity [17] of the same molecule?
A: 84.3%

Q: And the residual activity [18]?
A: 100%

Q: And the residual activity [19]?
A: 116%

Q: And the residual activity [20]?
A: 63.5%

Q: What about the residual activity [21] of the same molecule?
A: 97.9%

Q: And the residual activity [22]?
A: 96.8%

Q: And the residual activity [23]?
A: 47.7%

Q: What about the residual activity [24] of the same molecule?
A: 74.3%

Q: What about the residual activity [25] of the same molecule?
A: 95.8%

Q: What about the residual activity [26] of the same molecule?
A: 88.3%

Q: What about the residual activity [27] of the same molecule?
A: 93.8%

Q: And the residual activity [28]?
A: 19.7%

Q: What about the residual activity [29] of the same molecule?
A: 96%

Q: What about the residual activity [30] of the same molecule?
A: 103%

Q: What about the residual activity [31] of the same molecule?
A: 93.5%

Q: And the residual activity [32]?
A: 93%

Q: What about the residual activity [33] of the same molecule?
A: 64.6%

Q: What about the residual activity [34] of the same molecule?
A: 94.3%

Q: And the residual activity [35]?
A: 101%

Q: And the residual activity [36]?
A: 99.7%

Q: And the residual activity [37]?
A: 76.8%

Q: And the residual activity [38]?
A: 89.6%

Q: And the residual activity [39]?
A: 93.1%

Q: What about the residual activity [40] of the same molecule?
A: 95.5%

Q: And the residual activity [41]?
A: 98.6%

Q: What about the residual activity [42] of the same molecule?
A: 100%
